{"source": "patent US20050059645A1", "about": "“Methods for the treatment of male and female sexual dysfunction” (priority 2003, published 2005)", "key": {"testosterone [1]": {"test_system": "testosterone", "test": "Phase I repeated buccal dosing in postmenopausal women: serum testosterone", "format": "in vivo, human", "conditions": "for testosterone level exceeding baseline: 72 hours after last dose", "method": "Even more recently, in a Phase I clinical study of postmenopausal women, two different administration regimens of a 2.86 mg E2-CDS buccal delivery tablet were evaluated for safety and effects on hormone levels. The subjects were 12 healthy postmenopausal volunteers, divided into two groups of six. In Group A, women were dosed once daily for 10 days (10 doses); in Group B, women were dosed once every other day for 13 days (7 doses)."}, "castrated male rats [2]": {"test_system": "castrated male rats", "test": "Male rat copulatory behavior after orchidectomy", "format": "in vivo", "protocol": "Adult male Sprague Dawley rats (300-400 g) from Charles River Hungary Ltd., Godollo, Hungary, were used. Animals were kept in community cages (4 animals/cage) in a climate-controlled room (23±2° C.), with a 14 hour light, 10 hour dark cycle of artificial lighting, using reversed light/dark cycle. […] These hormones were dissolved in sunflower oil.\nAfter establishment of basal behaviors as discussed below, selected animals were orchidectomized via a single midventral incision and were rehoused.\nAfter repeated testing of animals recovered from orchidectomy as discussed below, rats were divided into four groups and treated intravenously, via a single tail vein injection, with one of the following: group 1: control (27% hydroxypropyl-β-cyclodextrin); group 2: 0.03 mg/kg E2-CDS; group 3: 0.3 mg/kg E2-CDS; and group 4: 3 mg/kg E2-CDS.\nMating was observed during the dark cycle in a plexi observation cage in a room where only a dim red light was on. The male was placed in the observation cage 5 minutes prior to the female.\nThe following parameters were then measured: • Mount latency (ML): the time from the introduction of the female to the initial mount or intromission; • Intromission latency (IL): the time from introduction of the female to the first intromission; and • Ejaculatory latency (EL): the time from the first intromission to ejaculation.\nSessions were considered negative if IL exceeded 15 minutes.\nTo establish basal behavior, each male was tested every 5 days until four successive and consistent behavioral patterns were achieved. This pretesting lasted for about four weeks. Approximately half of the animals tested were deemed suitable for orchidectomy.\nTwenty-eight days after healing from orchidectomy, the animals were tested again (Day 0) and divided into 4 experimental groups. Only animals displaying ejaculation latencies greater than 15 minutes were included in the study.\nTests of male sexual behavior were conducted 3, 7, 14, 21, 28, 35 and 42 days after drug administration or until the effect disappeared, i.e. until no statistically significant difference was found between groups during two consecutive tests.\nBehavioral patterns and related times were recorded manually by skilled observers.\n(§1) Four weeks following orchidectomy, groups of rats were treated with one of the following drug doses via tail vein injection: E2-CDS 0.03, 0.3, and 3 mg/kg. Blood samples were collected by orbital sinus puncture under light ether anesthesia. The samples were stored at 4° C. for one hour and centrifuged at 1,000 g for 10 minutes. Plasma was separated and stored at −80° C. until assayed. Plasma LH concentrations from individual samples were measured by double antibody radioimmunoassay kits obtained from Amersham Pharmacia Biotech, Rome, Italy. […] The limit of detection was 15 pg/ml.\n(§2) Behavioral changes were analyzed using the Mann-Whitney U test (Siegel, Nonparametric Statistics for the Behavioral Sciences, New York; McGraw-Hill Book Company, Inc., 1956). The Fisher exact test was used for percentage comparisons (Zar, Biostatistical Analysis, Prentice Hall, Inc., Englewood Cliffs, N.J., 1974). Serum LH data were analyzed for each time and treatment group by analysis of variance (ANOVA) followed by Bonferroni posthoc test.\nThe testing described above was repeated using a dose of 0.03 mg/kg administered as a single i.v. injection, and a dose of 0.01 mg/kg with daily i.v. administration for 10 days. E2-CDS stock solution (40%) was diluted in 27% HPβCD solution.\nThe copulatory behavior of E2-CDS treated groups was compared to that of the HPβCD control group at 1, 3, 7, 14, and 21 days after i.v. drug administration in the 0.03 mg/kg group and at 1, 3, 7, 14 and 21 days after initial i.v. drug administration in the 0.01 mg/kg×10 days group."}, "LH [3]": {"test_system": "LH", "test": "Plasma LH by radioimmunoassay in orchidectomized male rats", "format": "in vivo, rat", "conditions": "for plasma LH level: repeated examination", "protocol": "as §1, §2"}, "LH [4]": {"test_system": "LH", "conditions": "cited from earlier work"}, "LH [5]": {"test_system": "LH", "conditions": "cited from earlier work", "remark": "listed apart in the source"}, "LH [6]": {"test_system": "LH", "conditions": "cited from earlier work", "remark": "listed apart in the source"}, "castrated male rats [7]": {"test_system": "castrated male rats", "conditions": "cited from earlier work"}, "testosterone [8]": {"test_system": "testosterone", "conditions": "1 mg/kg i.v., cited from earlier work"}, "[9]": {"conditions": "3.0 mg/kg single i.v., days 14, 21 and 28"}}, "note": "Like-named read-outs stand apart in the source and are kept apart here.", "data": [{"smiles": "CN1C=CCC(C(=O)O[C@H]2CC[C@H]3[C@@H]4CCc5cc(O)ccc5[C@H]4CC[C@]23C)=C1", "note": "[E2-CDS, 17β-[(1-methyl-1,4-dihydro-3-pyridinyl)carbonyloxy]estra-1,3,5(10)-trien-3-ol]", "values": [{"measurement": "testosterone level exceeding baseline", "setting": "testosterone [1]; Group A", "value": 14, "unit": "%"}, {"measurement": "testosterone level exceeding baseline", "setting": "testosterone [1]; Group B", "value": 28, "unit": "%"}, {"measurement": "time to reach minimum testosterone level", "setting": "testosterone [1]; day 1, Group A", "value": "6.5 ± 11.7", "unit": "h"}, {"measurement": "mean testosterone AUC24 lower than baseline AUC24", "setting": "testosterone [1]; day 1, Group B", "value": 23.0, "unit": "%"}, {"measurement": "time to reach minimum testosterone level", "setting": "testosterone [1]; day 1, Group B", "value": "7.3 ± 11.3", "unit": "h"}, {"measurement": "effect on copulatory behavior", "setting": "castrated male rats [2]; 0.03 mg/kg single i.v., first study", "value": "no statistically significant effect"}, {"measurement": "sexual activity", "setting": "castrated male rats [2]; 0.03 mg/kg single i.v., repeated study", "value": "improved sexual activity, but it was not statistically significant in any observations"}, {"measurement": "mount frequency", "setting": "castrated male rats [2]; 0.3 mg/kg single i.v.", "value": "significantly increased on day 7"}, {"measurement": "mount latency", "setting": "castrated male rats [2]; 0.3 mg/kg single i.v.", "value": "sharply reduced from day 7 through day 28"}, {"measurement": "intromission performance", "setting": "castrated male rats [2]; 3.0 mg/kg single i.v.", "value": "improved in a statistically significant manner from day 14 through day 28"}, {"measurement": "mount latency", "setting": "castrated male rats [2]; 3.0 mg/kg single i.v.", "value": "sharply reduced from day 7 through day 28"}, {"measurement": "intromission frequency", "setting": "castrated male rats [2]; [9]", "value": "statistically significant increase in intromission frequency"}, {"measurement": "intromission latency", "setting": "castrated male rats [2]; [9]", "value": "decrease in intromission latency"}, {"measurement": "effect on re-establishment of copulatory behavior", "setting": "castrated male rats [2]; 0.3 and 3.0 mg/kg single i.v.", "value": "significant at doses of 0.3 and 3.0 mg/kg through day 28"}, {"measurement": "plasma LH level", "setting": "LH [3]; 0.01 mg/kg i.v., 10 daily injections", "value": "significantly reduced at the dose of 0.01 mg/kg (10 daily injections) from day 3 to day 14"}, {"measurement": "plasma LH level", "setting": "LH [3]; 0.03 mg/kg single injection", "value": "significantly reduced on day 3 only"}, {"measurement": "plasma LH levels", "setting": "LH [3]; 0.3 mg/kg single i.v.", "value": "significantly reduced the LH levels on days 1, 3, and 7"}, {"measurement": "plasma LH levels", "setting": "LH [3]; 3 mg/kg single i.v.", "value": "suppressed significantly throughout 28 days"}, {"measurement": "duration of LH suppression", "setting": "LH [4]; 0.1 mg/kg i.v. in 20% (w/v) HPβCD, castrated female rats (Brewster 1988)", "value": 18, "unit": "days"}, {"measurement": "LH inhibition", "setting": "LH [4]; 0.5 mg/kg single i.v., day 12 (Estes 1987, Experiment 3)", "value": "heterogeneous results"}, {"measurement": "LH compared to equimolar estradiol 17-valerate", "setting": "LH [4]; 0.5 mg/kg single i.v., day 12 or 18 (Estes 1987, Experiment 4)", "value": "significantly decreased by E2-CDS compared to estradiol valerate"}, {"measurement": "plasma LH", "setting": "LH [4]; 1.0 mg/kg i.v. single and multiple weekly doses (Rahimy 1991)", "value": "significantly suppressed for single and multiple doses"}, {"measurement": "serum LH decrease compared to vehicle", "setting": "LH [4]; 2 mg/kg single i.v., day 12 (Estes 1987, Experiment 3)", "value": 75, "unit": "%"}, {"measurement": "serum LH decrease compared to vehicle", "setting": "LH [4]; 5 mg/kg single i.v., day 12 (Estes 1987, Experiment 3)", "value": 91, "unit": "%"}, {"measurement": "reduction in serum LH", "setting": "LH [4]; multiple i.v. injections (7, every two days) 10 to 333 μg/kg (Anderson 1988)", "value": "32-76%"}, {"measurement": "reduction in serum LH", "setting": "LH [4]; single i.v. dose 10 μg/kg (Anderson 1988)", "value": "no effect"}, {"measurement": "reduction in serum LH", "setting": "LH [4]; single i.v. dose 33 to 333 μg/kg, 2 days before sacrifice (Anderson 1988)", "value": "39-52%"}, {"measurement": "LH levels", "setting": "LH [5]; 3 mg/kg single i.v., 12, 18 and 24 days post-treatment", "value": "remained very significantly reduced"}, {"measurement": "duration of suppression of LH", "setting": "LH [5]; castrated male rats, 3 mg/kg i.v. studies", "value": "at least 24 days"}, {"measurement": "effects on plasma LH", "setting": "LH [6]; 1280 μg single i.v. dose group", "value": "substantial and sustained decreases"}, {"measurement": "effects on plasma LH", "setting": "LH [6]; 10-40 μg single i.v. dose group", "value": "Minimal effects"}, {"measurement": "effects on plasma LH", "setting": "LH [6]; 80-640 μg single i.v. dose group", "value": "threshold effects"}, {"measurement": "time through which LH was lowered in a clinically meaningful way", "setting": "LH [6]; single 1280 μg i.v. dose, one post-menopausal volunteer", "value": 96, "unit": "h"}, {"measurement": "masculine sexual behavior", "setting": "castrated male rats [7]; 3 mg/kg i.v. (Anderson '911 patent)", "value": "stimulated mounting behavior, increased intromission behavior and reduced both mount latency and intromission latency"}, {"measurement": "ejaculatory behavior", "setting": "castrated male rats [7]; 3 mg/kg single tail vein injection in DMSO (Anderson 1987)", "value": "ejaculatory behavior was not restored"}, {"measurement": "duration of improved masculine sexual behavior", "setting": "castrated male rats [7]; single i.v. dose of 3 mg/kg (Anderson '911 patent)", "value": 28, "unit": "days"}, {"measurement": "decrease of serum testosterone levels", "setting": "testosterone [8]; one day after treatment", "value": 99, "unit": "%"}, {"measurement": "suppression of serum testosterone", "setting": "testosterone [8]; through 14 days post-treatment", "value": "more than 96%"}]}]}
